Molecular target: LRRK2 (Homo sapiens (Human), UniProt Q5S007, G2019S)
Experiment: In Vitro LRRK2 LabChip Assay
Type: biochemical
Details: Table 4
Protocol: In Vitro LRRK2 LabChip Assay
This assay was used to determine a compound's potency in inhibiting activity of LRRK2 by determining, Kiapp, IC50, or percent inhibition values. In a polypropylene plate, LRRK2, fluorescently-labeled peptide substrate, ATP and test compound were incubated together. Using a LabChip 3000 (Caliper Life Sciences), after the reaction the substrate was separated by capillary electrophoresis into two populations: phosphorylated and unphosphorylated. The relative amounts of each were quantitated by fluorescence intensity. LRRK2 Ki was determined according to the equation: Y=V0*(1−((x+Ki*(1+S/Km)+Et)/(2*Et)−(((x+Ki*(1+S/Km)+Et)^2−(4*Et*x))^0.5)/(2*Et))). Ki values in Table 4 and elsewhere herein are shown in μM.
Assay conditions and materials used were as follows:
Compound Plate Preparation:
For serial dilutions, 34.6 μl DMSO was added to columns 3-24. For the assay controls, 37.5 μl DMSO was added to columns 1 and 2 of rows A and P. a,d and 50 μl 25 μM G-028831 (Staurosporine) was added to columns 1 and 2, row B. For the samples: to start at 100 μM, 37.5 μl DMSO was to columns 1 and 2, then 12.5 μl 10 mM compound; to start at 10 μM, 78 μl DMSO was added to columns 1 & 2, then 2 μl 10 mM compound; and to start at 1 μM, 25 μM compound (2 μl 10 mM cmpd+798 μl DMSO) was added to empty columns 1 and 2. A Precision instrument was used to perform 1:3.16 serial dilutions (“PLK_BM_serial_halflog”).
ATP was diluted to 282.1 μM in Complete Kinase Buffer (final concentration was 130 μM).
Total and Blank Preparation:
In Complete Reaction Buffer, substrate was diluted to 4 μM. Equal volumes of Complete Reaction Buffer and 4 μM substrate were combined to obtain the blank. Equal volumes of Complete Reaction Buffer and 4 μM substrate were combined and to the combined solution was added 2× final LRRK2 concentration.
To a 50 μl polypropylene plate, 5 μl/well buffer/substrate was added by hand to Blank wells. A Biomek FX was used to start the kinase reaction (“PLK SAR 23 ATP”). The following were added to the appropriate wells:
5 μl/well compound/ATP in Assay Plate;
5 μl/well kinase/substrate in Assay Plate;
The plate was incubated for 2 hours in the dark. Biomek FX was used to stop the kinase reaction (“PLK Stop”), and 10 μl/well Stop solution was added to the Assay Plate. Results were read on the LabChip 3000.
The LabChip 3000 was run using the job “LRRK2IC50” with the following job settings: […]

LRRK2, sequence (Q5S007 970-2527 G2019S limits assumed): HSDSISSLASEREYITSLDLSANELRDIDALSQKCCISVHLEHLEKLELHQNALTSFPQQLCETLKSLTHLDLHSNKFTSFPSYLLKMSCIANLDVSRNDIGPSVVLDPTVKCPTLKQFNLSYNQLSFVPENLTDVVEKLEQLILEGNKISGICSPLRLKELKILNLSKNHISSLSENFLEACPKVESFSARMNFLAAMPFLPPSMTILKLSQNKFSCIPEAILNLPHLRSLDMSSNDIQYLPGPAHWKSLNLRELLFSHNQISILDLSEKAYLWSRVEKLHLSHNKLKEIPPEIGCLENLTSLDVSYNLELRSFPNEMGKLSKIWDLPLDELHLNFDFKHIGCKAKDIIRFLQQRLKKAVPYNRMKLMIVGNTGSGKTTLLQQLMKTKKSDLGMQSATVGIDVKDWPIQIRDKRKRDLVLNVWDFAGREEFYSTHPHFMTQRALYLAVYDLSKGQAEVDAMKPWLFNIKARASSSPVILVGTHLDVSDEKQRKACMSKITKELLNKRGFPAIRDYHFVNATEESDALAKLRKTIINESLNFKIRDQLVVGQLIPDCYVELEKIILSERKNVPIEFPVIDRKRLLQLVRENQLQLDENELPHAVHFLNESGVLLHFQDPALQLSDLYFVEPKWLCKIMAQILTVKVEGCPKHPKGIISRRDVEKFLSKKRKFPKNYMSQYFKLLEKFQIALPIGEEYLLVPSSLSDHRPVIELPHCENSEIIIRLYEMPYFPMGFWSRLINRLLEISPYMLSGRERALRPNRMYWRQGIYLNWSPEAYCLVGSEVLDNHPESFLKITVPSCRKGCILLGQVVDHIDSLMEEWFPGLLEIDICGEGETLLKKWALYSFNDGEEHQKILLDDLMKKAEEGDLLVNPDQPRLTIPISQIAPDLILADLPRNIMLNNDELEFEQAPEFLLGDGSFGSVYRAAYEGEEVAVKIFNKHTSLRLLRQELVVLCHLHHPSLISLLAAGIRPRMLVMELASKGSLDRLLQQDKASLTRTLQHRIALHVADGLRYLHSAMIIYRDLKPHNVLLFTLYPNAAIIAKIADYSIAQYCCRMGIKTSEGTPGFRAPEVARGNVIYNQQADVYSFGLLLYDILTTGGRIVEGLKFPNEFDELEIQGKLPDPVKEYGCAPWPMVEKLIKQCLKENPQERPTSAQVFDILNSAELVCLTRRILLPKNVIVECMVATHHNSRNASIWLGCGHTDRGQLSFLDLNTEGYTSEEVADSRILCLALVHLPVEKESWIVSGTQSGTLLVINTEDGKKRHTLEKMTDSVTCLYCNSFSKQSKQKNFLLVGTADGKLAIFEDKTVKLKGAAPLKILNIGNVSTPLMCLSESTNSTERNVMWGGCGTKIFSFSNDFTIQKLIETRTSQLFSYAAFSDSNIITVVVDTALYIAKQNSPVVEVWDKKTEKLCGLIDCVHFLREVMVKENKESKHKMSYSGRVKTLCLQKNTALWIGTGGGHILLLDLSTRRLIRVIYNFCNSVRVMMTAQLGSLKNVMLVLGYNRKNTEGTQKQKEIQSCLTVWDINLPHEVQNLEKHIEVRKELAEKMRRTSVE

| Structure (SMILES) | Ki [nM] |
| --- | --- |
| CNc1nc(Nc2ccc(C(=O)N3CCC(C(C)(C)O)CC3)cc2OC)ncc1Br [Example 71, [4-(5-Bromo-4-methylamino-pyrimidin-2-ylamino)-3-methoxy-phenyl]-[4-(l-hydroxy-1-methyl-ethyl)-piperidin-1-yl]-methanone] | 2.4 |
| CNc1nc(Nc2ccc(C(=O)N3CCC(C(F)(F)F)C3)cc2OC)ncc1Br (stereo not shown) [Example 72, [4-(5-Bromo-4-methylamino-pyrimidin-2-ylamino)-3-methoxy-phenyl]-(3-trifluoromethyl-pyrrolidin-1-yl)-methanone] | 6.4 |
| CNc1nc(Nc2ccc(C(=O)N3CCC(C#N)CC3)cc2OC)ncc1Br [Example 73, l-[4-(5-Bromo-4-methylamino-pyrimidin-2-ylamino)-3-methoxy-benzoyl]-piperidine-4-carbonitrile] | 4.1 |
| CNc1nc(Nc2ccc(C(=O)N3CCN(C4CCC4)CC3)cc2OC)ncc1Br [Example 74] | 2.3 |
| CNc1nc(Nc2ccc(C(=O)N3CCN(CC(F)(F)F)CC3)cc2OC)ncc1Br [Example 75, [4-(5-Bromo-4-methylamino-pyrimidin-2-ylamino)-3-methoxy-phenyl]-[4-(2,2,2-trifluoro-ethyl)-piperazin-1-yl]-methanone] | 3.8 |
| CNc1nc(Nc2ccc(C(=O)N3CCC(OC)CC3)cc2OC)ncc1Br [Example 76, [4-(5-Bromo-4-methylamino-pyrimidin-2-ylamino)-3-methoxy-phenyl]-(4-methoxy-piperidin-1-yl)-methanone] | 2.4 |
| CNc1nc(Nc2ccc(C(=O)N3CC[C@@H](O)C3)cc2OC)ncc1Br [Example 77, [4-(5-Bromo-4-methylamino-pyrimidin-2-ylamino)-3-methoxy-phenyl]-((R)-3-hydroxy-pyrrolidin-1-yl)-methanone] | 5.1 |
| CNc1nc(Nc2ccc(C(=O)N3CCN(C4COC4)CC3)cc2OC)ncc1Br [Example 78, [4-(5-Bromo-4-methylamino-pyrimidin-2-ylamino)-3-methoxy-phenyl]-(4-oxetan-3-yl-piperazin-1-yl)-methanone] | 8 |
| CNc1nc(Nc2ccc(C(=O)N3CCOCC3)cc2OC(C)C)ncc1Cl [Example 79, [4-(5-Chloro-4-methylamino-pyrimidin-2-ylamino)-3-isopropoxy-phenyl]-morpholin-4-yl-methanone] | 15.6 |
| COc1cc(C(=O)N2CCOCC2)ccc1Nc1ncc(Cl)c(NCC2CC2)n1 [Example 80, {4-[5-Chloro-4-(cyclopropylmethyl-amino)-pyrimidin-2-ylamino]-3-methoxy-phenyl}-morpholin-4-yl-methanone] | 2.7 |
| COc1cc(C(=O)N2CCOCC2)ccc1Nc1ncc(Cl)c(NC2CCC2)n1 [Example 81, [4-(5-Chloro-4-cyclobutylamino-pyrimidin-2-ylamino)-3-methoxy-phenyl]-morpholin-4-yl-methanone] | 1.5 |
| CNc1nc(Nc2ccc(C(=O)N3CCOCC3)cc2O)ncc1Cl [Example 82, [4-(5-Chloro-4-methylamino-pyrimidin-2-ylamino)-3-hydroxy-phenyl]-morpholin-4-yl-methanone] | 28.9 |
| COc1nc(Nc2ccc(C(=O)N3CCOCC3)cc2OC2CCC2)ncc1Br [Example 85, [4-(5-Bromo-4-methoxy-pyrimidin-2-ylamino)-3-cyclobutoxy-phenyl]-morpholin-4-yl-methanone] | 2.8 |
| CCNc1nc(Nc2cc(F)c(C(=O)N3CCOCC3)cc2OC)ncc1Cl [Example 87, [4-(5-Chloro-4-ethylamino-pyrimidin-2-ylamino)-2-fluoro-5-methoxy-phenyl]-morpholin-4-yl-methanone] | 2.5 |
| COc1cc(C(=O)N2CC(N3CCOCC3)C2)ccc1Nc1ncc(Br)c(OC)n1 [Example 88, [4-(5-Bromo-4-methoxy-pyrimidin-2-ylamino)-3-methoxy-phenyl]-(3-morpholin-4-yl-azetidin-1-yl)-methanone] | 5 |
| CNc1nc(Nc2ccc(C(=O)N3CC(N4CCOCC4)C3)cc2OC)ncc1Cl [Example 89, [4-(5-Chloro-4-methylamino-pyrimidin-2-ylamino)-3-methoxy-phenyl]-(3-morpholin-4-yl-azetidin-1-yl)-methanone] | 2.7 |
| COc1cc(C(=O)N2CCOCC2)ccc1Nc1ncc(Cl)c(NC2(C)CCC2)n1 [Example 91, {4-[5-Chloro-4-(1-methyl-cyclobutylamino)-pyrimidin-2-ylamino]-3-methoxy-phenyl}-morpholin-4-yl-methanone] | 2.4 |
| COc1cc(C(=O)N2CCOCC2)ccc1Nc1ncc(Cl)c(NCC2CCOC2)n1 (stereo not shown) [Example 93, (4-{5-Chloro-4-[(tetrahydro-furan-3-ylmethyl)-amino]-pyrimidin-2-ylamino}-3-methoxy-phenyl)-morpholin-4-yl-methanone] | 14.1 |
| COc1cc(C(=O)N2CCOCC2)ccc1Nc1ncc(I)c(OC)n1 [Example 101, [4-(5-Iodo-4-methoxy-pyrimidin-2-ylamino)-3-methoxy-phenyl]-morpholin-4-yl-methanone] | 2.1 |
| CNc1nc(Nc2ccc(C(=O)N3CCOCC3)cc2OC)ncc1C1CC1 [Example 103, [4-(5-Cyclopropyl-4-methylamino-pyrimidin-2-ylamino)-3-methoxy-phenyl]-morpholin-4-yl-methanone] | 89.5 |
| COc1cc(C(=O)N2CCOCC2)ccc1Nc1ncc(Cl)c(NCCC2CC2)n1 [Example 104, {4-[5-Chloro-4-(2-cyclopropyl-ethylamino)-pyrimidin-2-ylamino]-3-methoxy-phenyl}-morpholin-4-yl-methanone] | 1.8 |
| COCCNc1nc(Nc2ccc(C(=O)N3CCOCC3)cc2OC)ncc1Cl [Example 105, {4-[5-Chloro-4-(2-methoxy-ethylamino)-pyrimidin-2-ylamino]-3-methoxy-phenyl}-morpholin-4-yl-methanone] | 9.4 |
| [2H]C1([2H])OCCN(C(=O)c2ccc(Nc3ncc(Br)c(OC)n3)c(OC)c2)[C@@H]1C [Example 107, [4-(5-Bromo-4-methoxy-pyrimidin-2-ylamino)-3-methoxy-phenyl]-((R)-2,2-di-deutero-3-methyl-morpholin-4-yl)-methanone] | 2 |
| COCCNc1nc(Nc2ccc(C(=O)N3CCOCC3)cc2OCC(F)(F)F)ncc1Cl [Example 109, [4-[5-Chloro-4-(2-methoxy-ethylamino)-pyrimidin-2-ylamino]-3-(2,2,2-trifluoro-ethoxy)-phenyl]-morpholin-4-yl-methanone] | 9.6 |
| CNc1nc(Nc2ccc(C(=O)N3CCOCC3)cc2Cl)ncc1Cl [Example 115, [3-Chloro-4-(5-chloro-4-methylamino-pyrimidin-2-ylamino)-phenyl]-morpholin-4-yl-methanone] | 6 |
| CNc1nc(Nc2ccc(C(=O)N3CCOCC3)cc2OC)ncc1OC [Example 133, (3-methoxy-4-(5-methoxy-4-(methylamino)pyrimidin-2-ylamino)phenyl) (morpholino) methanone] | 259 |
| COCCOc1nc(Nc2ccc(C(=O)N3CCOCC3)cc2OC)ncc1Br [Example 139, {4-[5-Bromo-4-(2-methoxy-ethoxy)-pyrimidin-2-ylamino]-3-methoxy-phenyl}-morpholin-4-yl-methanone] | 5.7 |
| CNc1nc(Nc2cc(OC)c(C(=O)N(C)C)cc2Cl)ncc1Cl [Example 140, 5-Chloro-4-(5-chloro-4-methylamino-pyrimidin-2-ylamino)-2-methoxy-N,N-dimethyl-benzamide] | 11.8 |

From patent US8802674B2, “Aminopyrimidine derivatives as LRRK2 modulators” (Genentech, Inc., priority 2011, dated 2014)
